The record followed here is patent US8217060B2, “Benzimidazole derivatives useful as TRP M8 receptor modulators” (Janssen Pharmaceutica, NV, priority 2009, dated 2012).

Structures can show the parent of a compound that is named as a salt.

The target in one test is T1, canine TRPM8 (Canis lupus familiaris, UniProt Q1A7N1).
T1 construct: expressed in transfected cells
The test is described as follows: In Vitro Canine TRPM8 Functional Assay (icilin-induced intracellular Ca2+ fluorescence, FLIPR/FDSS). Type of test: cell-based. The settings on record: HEK293 cells stably expressing canine TRPM8; for inhibition at 0.2 µM: 0.2 μM test compound, icilin challenge; for IC50: icilin challenge (~80% maximal response), eight-point dose-response. As for the experimental part: The functional activity of representative compounds of the formula (I) of the present invention were measured by measuring changes in intracellular calcium concentration using a Ca^2+-sensitive fluorescent dye. The changes in fluorescent signal were monitored by a fluorescence plate reader, either a FLIPR™ (Molecular Devices) or FDSS (Hamamatsu).
HEK293 cells stably expressing canine TRPM8 were routinely grown as monolayers in Dulbecco's minimum essential medium supplemented with 10% FBS, 2 mM L-glutamine, 100 units/mL penicillin, 100 ug/mL streptomycin and 400 μg/mL G418. Cells were maintained in 5% CO2 at 37° C. At 24 hrs prior to assay, cells were seeded in black wall, clear-base poly-D-lysine coated 384-well plates (BD Biosciences, NJ, USA) at a density of 5,000 cells per well in culture medium and grown overnight in 5% CO2 at 37° C. On assay day, growth media was removed and cells were loaded with Calcium 3 Dye (Molecular Devices) for 35 min at 37° C., under 5% CO2 and then for 25 min at room temperature and atmosphere. Subsequently, cells were tested for agonist-induced increases in intracellular Ca^2+ levels using FLIPR™ or FDSS. Cells were challenged with compounds of the formula (I) (at varying concentrations) and intracellular Ca^2+ was measured for 5 min prior to the addition of icilin to all wells to achieve a final concentration that produces approximately an 80% maximal response.
Basal FI was subtracted prior to normalizing data to percent of maximal response. Curves were generated using the average of quadruplicate wells for each data point, were analyzed using nonlinear regression of either sigmoidal dose response or sigmoidal dose response (variable slope). Finally, the EC50 and IC50 values were calculated with the best-fit dose curve determined by GraphPad Prism

Test [1] relates to Male Sprague Dawley rats. As to the kind of experiment: Inhibition of Icilin-Induced “Wet-Dog” Shakes in Rats. The test is classed as in vivo. The following applies: 60 min before icilin 3.0 mg/kg i.p., rat. As for the experimental part: Male Sprague Dawley rats ([…], Charles River Labs, n=6-9/treatment) were used to evaluate the ability of test compounds to block icilin-induced “wet-dog” shakes (WDS). The test compound was administered in 10% hydroxypropyl-β-cyclodextrin (HP β CD), p.o., 60 minutes before icilin. Icilin was then administered in 10% solutol/H2O, at 3.0 mg/kg, i.p. and spontaneous “wet-dog” shakes were counted over a 10 minute period, 10 minutes following the icilin injection.

Test [2] relates to Male Sprague Dawley rats. The test is described as follows: Chronic Constriction Injury (CCI)-Induced Model of Neuropathic Pain - Acetone-Induced Hypersensitivity. The test is classed as in vivo. The settings on record: 10 mg/kg p.o. in 10% HP β CD, rat. An excerpt: Male Sprague Dawley rats (225-450 g; n=5-8/treatment) were used to evaluate the ability of test compounds to reverse CCI-induced cold hypersensitivity. Four loose ligatures of 4-0 chromic gut were surgically placed around the left sciatic nerve under inhalation anesthesia as described by Bennett et al (BENNETT G. J. et al., “A Peripheral Mononeuropathy in Rat that Produces Disorders of Pain Sensation Like Those Seen in Man”, Pain, 1988, pp. 87-107, Vol 33(1)). Fourteen to 35 days following CCI surgery, subjects were placed in elevated observation chambers containing wire mesh floors and five applications of acetone (0.05 mL/application separated by approximately 5 minutes) were spritzed onto the plantar surface of the paw using a multidose syringe. An abrupt withdrawal or lifting of the paw was considered a positive response. The number of positive responses was recorded for each rat over the five trials. Following baseline withdrawal determinations, test compounds were administered in 10% hydroxypropyl-β-cyclodextrin (HP β CD), p.o. The number of withdrawals was re-determined at 2, 3 and 4 hours after compound administration.

T1 sequence (Q1A7N1 1-1104): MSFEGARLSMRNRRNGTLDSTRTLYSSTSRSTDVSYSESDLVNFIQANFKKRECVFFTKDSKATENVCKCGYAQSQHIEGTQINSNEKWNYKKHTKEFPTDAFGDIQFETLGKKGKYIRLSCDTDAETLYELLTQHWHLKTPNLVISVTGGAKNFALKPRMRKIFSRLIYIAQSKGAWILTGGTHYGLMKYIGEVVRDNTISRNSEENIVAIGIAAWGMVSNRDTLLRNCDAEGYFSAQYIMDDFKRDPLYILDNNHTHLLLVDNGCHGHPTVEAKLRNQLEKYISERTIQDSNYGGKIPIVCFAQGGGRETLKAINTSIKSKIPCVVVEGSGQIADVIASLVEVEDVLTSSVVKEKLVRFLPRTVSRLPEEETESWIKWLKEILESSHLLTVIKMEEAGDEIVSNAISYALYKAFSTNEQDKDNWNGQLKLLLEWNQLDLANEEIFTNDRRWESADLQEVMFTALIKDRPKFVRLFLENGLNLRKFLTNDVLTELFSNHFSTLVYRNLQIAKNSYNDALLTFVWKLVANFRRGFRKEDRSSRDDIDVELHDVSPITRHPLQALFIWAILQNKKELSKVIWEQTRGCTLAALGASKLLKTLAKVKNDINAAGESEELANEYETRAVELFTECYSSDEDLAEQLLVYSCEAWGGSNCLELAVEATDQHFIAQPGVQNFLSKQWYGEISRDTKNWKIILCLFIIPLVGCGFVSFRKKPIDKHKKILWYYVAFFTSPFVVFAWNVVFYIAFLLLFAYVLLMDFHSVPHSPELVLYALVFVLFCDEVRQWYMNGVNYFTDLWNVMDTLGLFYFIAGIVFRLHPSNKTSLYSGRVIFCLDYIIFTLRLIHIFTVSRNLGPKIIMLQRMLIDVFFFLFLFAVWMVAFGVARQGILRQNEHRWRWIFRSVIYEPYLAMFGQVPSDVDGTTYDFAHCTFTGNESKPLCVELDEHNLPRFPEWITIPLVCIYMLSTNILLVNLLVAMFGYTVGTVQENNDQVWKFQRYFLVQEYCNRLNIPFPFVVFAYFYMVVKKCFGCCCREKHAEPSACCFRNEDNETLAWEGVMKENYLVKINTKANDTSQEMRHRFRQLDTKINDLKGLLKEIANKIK

Take `FC(F)(F)c1cccc(C(F)(F)F)c1-c1ccc2[nH]c(/C=C/C3CCCCC3)nc2c1` [Compound 58, (E)-5-(2,6-Bis-trifluoromethyl-phenyl)-2-(2-cyclohexyl-vinyl)-1H-benzimidazole]: on canine TRPM8, the inhibition at 0.2 µM is 83% and the IC50 is 9 nM. The “% Inhibition of icilin-induced “wet-dog” shakes” value with Male Sprague Dawley rats [1] (10 mg/kg p.o.) is 30%.
`Cl.FC(F)(F)c1ccccc1-c1ccc2[nH]c(/C=C/C3CCCCC3)nc2c1` [Compound 71, 2-(2-Cyclohexyl-vinyl)-5-(2-trifluoromethyl-phenyl)-1H-benzoimidazole hydrochloride]: the inhibition at 0.2 µM on canine TRPM8 was 94%. Also, the IC50 against canine TRPM8 was determined as 9 nM. In the test with Male Sprague Dawley rats [1] (30 mg/kg p.o.), the “% Inhibition of icilin-induced “wet-dog” shakes” value was 90%. For the same molecule, the “% Inhibition (acetone-evoked paw withdrawals, CCI)” value with Male Sprague Dawley rats [2] (2 h after administration) is 91%; with Male Sprague Dawley rats [2] (3 h after administration), 91%; in the test on Male Sprague Dawley rats [2] (4 h after administration) it was 77%.
Turning to `FC1(F)CCC(/C=C/c2nc3cc(-c4ccccc4C(F)(F)F)ccc3[nH]2)CC1` [Compound 30, 2-[2-(4,4-Difluoro-cyclohexyl)-vinyl]-5-(2-trifluoromethyl-phenyl)-1H-benzimidazole hydrochloride salt], at canine TRPM8, the inhibition at 0.2 µM is 102% and the IC50 was 3 nM. Moreover, the “% Inhibition of icilin-induced “wet-dog” shakes” value in the test on Male Sprague Dawley rats [1] (10 mg/kg p.o.) is 98%.
In the case of `FC(F)(F)Oc1ccccc1-c1ccc2[nH]c(/C=C/C3CCCCC3)nc2c1` [Compound 1, 2-(2-Cyclohexyl-vinyl)-5-(2-trifluoromethoxy-phenyl)-1H-benzimidazole hydrochloride salt], at canine TRPM8, the inhibition at 0.2 µM is 93% and the IC50 was determined as 14 nM. Also, in the test with Male Sprague Dawley rats [1] (30 mg/kg p.o.), the “% Inhibition of icilin-induced “wet-dog” shakes” value is given as 48%.
For the molecule `Fc1cccc(OC(F)(F)F)c1-c1ccc2[nH]c(/C=C/C3CCCCC3)nc2c1` [Compound 59, (E)-2-(2-Cyclohexyl-vinyl)-5-(2-fluoro-6-trifluoromethoxy-phenyl)-1H-benzimidazole], at canine TRPM8, the inhibition at 0.2 µM stood at 96% and the IC50 worked out at 6 nM. Further, the “% Inhibition of icilin-induced “wet-dog” shakes” value with Male Sprague Dawley rats [1] (10 mg/kg p.o.) turned out to be 75%.
Turning to `COc1ccc(Cl)cc1-c1ccc2[nH]c(C=CC3CCCCC3)nc2c1` [Compound 20, 5-(5-Chloro-2-methoxy-phenyl)-2-(2-cyclohexyl-vinyl)-1H-benzimidazole], on canine TRPM8, the inhibition at 0.2 µM stood at 85% and the IC50 came to 53 nM.
The corresponding values for `Cc1ccsc1-c1ccc2[nH]c(C=CC3CCCC3)nc2c1` [Compound 25, 2-(2-Cyclopentyl-vinyl)-5-(3-methyl-thiophen-2-yl)-1H-benzimidazole] are 102% and 13 nM.
The corresponding values for `COc1ccc(F)cc1-c1ccc2[nH]c(C=CC3CC=C(F)CC3)nc2c1` (centres unmarked) [Compound 33, 2-[2-(4-Fluoro-cyclohex-3-enyl)-vinyl]-5-(5-fluoro-2-methoxy-phenyl)-1H-benzoimidazole hydrochloride salt] are 101% and 9 nM.
The corresponding values for `COc1cccc(F)c1-c1ccc2[nH]c(C=CC3CCC(F)(F)CC3)nc2c1` [Compound 44, 2-[2-(4,4-Difluoro-cyclohexyl)-vinyl]-5-(2-fluoro-6-methoxy-phenyl)-1H-benzoimidazole hydrochloride salt] are 101% and 3 nM.
`FC(F)(F)c1ccccc1-c1ccc2[nH]c(/C=C/C3CCOCC3)nc2c1` [Compound 50, (E)-2-[2-(Tetrahydro-pyran-4-yl)-vinyl]-5-(2-trifluoromethyl-phenyl)-1H-benzimidazole hydrochloride]: on canine TRPM8, the inhibition at 0.2 µM worked out at 101% and half-maximal inhibition (IC50) was put at 17 nM. The “% Inhibition of icilin-induced “wet-dog” shakes” value with Male Sprague Dawley rats [1] (10 mg/kg p.o.) was 89%.
Regarding `CC1(/C=C/c2nc3cc(-c4ccccc4C(F)(F)F)ccc3[nH]2)CCOCC1` [Compound 66, (E)-2-[2-(4-Methyl-tetrahydro-pyran-4-yl)-vinyl]-5-(2-trifluoromethyl-phenyl)-1H-benzimidazole], at canine TRPM8, the inhibition at 0.2 µM stood at 101% and the IC50 stood at 31 nM.
On the same counts, the results for `FC(F)(F)c1ccccc1-c1ccc2[nH]c(/C=C/C3CCSCC3)nc2c1` [Compound 51, (E)-2-[2-(Tetrahydro-thiopyran-4-yl)-vinyl]-5-(2-trifluoromethyl-phenyl)-1H-benzimidazole] are 95% and 31 nM.
On the same counts, the results for `Cc1ccccc1-c1ccc2[nH]c(C=CC3CCCCC3)nc2c1` [Compound 3, 2-(2-Cyclohexyl-vinyl)-5-o-tolyl-1H-benzimidazole] are 103% and 7 nM.
